Results as given in ChEMBL document CHEMBL5260810, “Inhibition of bromodomain-containing protein 9 for the prevention of epigenetically-defined drug resistance” (Bioorg Med Chem Lett, 2017).

How the values were obtained:
NCI-H2405 = experiment: Cytotoxicity against human NCI-H2405 cells measured after 8 days; assay type: functional, cell-based; details: NCI-H2405, 192 h
NAMALVA = experiment: Cytotoxicity against human NAMALVA cells measured after 8 days; assay type: functional, cell-based; details: 192 h
[1] = Cytotoxicity against human KMS-21BM cells measured after 8 days; assay type: functional, cell-based; details: 192 h
NCI-H82 = experiment: Cytotoxicity against human NCI-H82 cells measured after 8 days; assay type: functional, cell-based; details: NCI-H82, 192 h
[2] = Cytotoxicity against human OVTOKO cells measured after 8 days; assay type: functional, cell-based; details: 192 h
YMB-1-E = experiment: Cytotoxicity against human YMB-1-E cells measured after 8 days; assay type: functional, cell-based; details: 192 h
HT-29 = experiment: Cytotoxicity against human HT-29 cells measured after 8 days; assay type: functional, cell-based; details: HT-29, 192 h
WiDr = experiment: Cytotoxicity against human WiDr cells measured after 8 days; assay type: functional, cell-based; details: 192 h
[3] = Cytotoxicity against human SK-MEL-23 cells measured after 8 days; assay type: functional, cell-based; details: SK-MEL-23, 192 h
UACC-62 = experiment: Cytotoxicity against human UACC-62 cells measured after 8 days; assay type: functional, cell-based; details: UACC-62, 192 h
[4] = Cytotoxicity against human KE-97 cells measured after 8 days; assay type: functional, cell-based; details: KE-97, 192 h
MKN-45 = experiment: Cytotoxicity against human MKN-45 cells measured after 8 days; assay type: functional, cell-based; details: MKN-45, 192 h
Calu-3 = experiment: Cytotoxicity against human Calu-3 cells measured after 8 days; assay type: functional, cell-based; details: Calu-3, 192 h
[5] = molecular target: Bromodomain-containing protein 3 (Homo sapiens, UniProt Q15059); experiment: Binding affinity to human partial length BRD3 bromodomain 1 (P24 to E144 residues) expressed in bacterial expression system by BROMOscan assay
CREB-binding protein = CREB-binding protein (Homo sapiens, UniProt Q92793); experiment: Binding affinity to human partial length CREBBP (R1081 to G1197 residues) expressed in bacterial expression system by BROMOscan assay
[6] = molecular target: T1, E3 ubiquitin-protein ligase TRIM33 (Homo sapiens, UniProt Q9UPN9); experiment: Binding affinity to human partial length TRIM33 (D882 to A1087 residues) expressed in bacterial expression system by BROMOscan assay
T1 sequence (Q9UPN9 whole entry): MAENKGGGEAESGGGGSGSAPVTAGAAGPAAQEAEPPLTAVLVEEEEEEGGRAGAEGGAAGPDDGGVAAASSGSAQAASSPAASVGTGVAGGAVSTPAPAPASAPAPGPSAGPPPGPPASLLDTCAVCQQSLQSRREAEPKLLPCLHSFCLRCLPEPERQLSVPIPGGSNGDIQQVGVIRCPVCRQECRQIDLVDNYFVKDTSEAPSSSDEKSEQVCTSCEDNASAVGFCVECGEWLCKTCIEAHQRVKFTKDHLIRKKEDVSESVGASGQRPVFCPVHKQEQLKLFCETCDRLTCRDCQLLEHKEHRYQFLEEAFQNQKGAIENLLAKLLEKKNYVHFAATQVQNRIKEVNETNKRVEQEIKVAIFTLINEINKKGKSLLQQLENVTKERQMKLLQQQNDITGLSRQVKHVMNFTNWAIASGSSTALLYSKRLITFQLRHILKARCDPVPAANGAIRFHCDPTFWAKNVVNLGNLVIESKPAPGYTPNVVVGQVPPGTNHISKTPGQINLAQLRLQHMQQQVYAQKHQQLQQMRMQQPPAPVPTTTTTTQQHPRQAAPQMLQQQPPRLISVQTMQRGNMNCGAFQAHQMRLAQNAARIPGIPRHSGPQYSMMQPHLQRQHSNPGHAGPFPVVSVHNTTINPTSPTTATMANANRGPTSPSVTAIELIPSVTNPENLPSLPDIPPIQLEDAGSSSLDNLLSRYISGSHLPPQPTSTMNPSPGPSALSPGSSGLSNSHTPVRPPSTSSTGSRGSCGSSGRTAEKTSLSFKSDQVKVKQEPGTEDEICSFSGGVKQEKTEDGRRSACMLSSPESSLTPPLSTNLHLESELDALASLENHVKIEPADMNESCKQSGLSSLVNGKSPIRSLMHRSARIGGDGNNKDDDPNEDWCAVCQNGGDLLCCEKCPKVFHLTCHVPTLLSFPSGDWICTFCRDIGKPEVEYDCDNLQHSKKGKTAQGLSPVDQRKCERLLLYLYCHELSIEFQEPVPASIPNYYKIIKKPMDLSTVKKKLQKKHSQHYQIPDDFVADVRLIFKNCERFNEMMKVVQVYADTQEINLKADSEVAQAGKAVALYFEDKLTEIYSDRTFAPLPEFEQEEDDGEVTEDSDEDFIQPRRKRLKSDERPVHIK

[7] = molecular target: Tyrosine-protein kinase JAK1 (Homo sapiens) (UniProt P23458); experiment: Inhibition of JAK1 (unknown origin) at 1 uM relative to control
[8] = molecular target: Serine/threonine-protein kinase SIK2 (Homo sapiens) (UniProt Q9H0K1); experiment: Inhibition of SIK2 (unknown origin) at 1 uM relative to control
[9] = molecular target: T2, Peroxisome proliferator-activated receptor gamma (Homo sapiens) (UniProt P37231); experiment: Inhibition of human PPARgamma at 10 uM relative to control
T2 sequence (whole entry): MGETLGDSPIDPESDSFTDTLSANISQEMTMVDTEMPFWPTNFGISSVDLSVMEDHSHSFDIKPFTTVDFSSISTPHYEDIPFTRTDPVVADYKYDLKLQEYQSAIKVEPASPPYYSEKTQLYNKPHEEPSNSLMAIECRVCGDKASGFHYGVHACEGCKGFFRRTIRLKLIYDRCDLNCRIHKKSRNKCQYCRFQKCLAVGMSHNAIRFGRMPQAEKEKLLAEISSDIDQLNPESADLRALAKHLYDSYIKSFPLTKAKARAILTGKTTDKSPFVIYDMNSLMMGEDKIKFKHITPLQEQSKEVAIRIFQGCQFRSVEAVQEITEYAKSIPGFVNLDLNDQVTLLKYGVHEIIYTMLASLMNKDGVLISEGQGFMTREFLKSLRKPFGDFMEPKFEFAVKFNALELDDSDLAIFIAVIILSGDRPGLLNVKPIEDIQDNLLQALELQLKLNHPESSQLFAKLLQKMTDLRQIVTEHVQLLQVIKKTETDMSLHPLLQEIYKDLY

Sequence of Serine/threonine-protein kinase SIK2 (Homo sapiens) (Q9H0K1 whole entry, looked up): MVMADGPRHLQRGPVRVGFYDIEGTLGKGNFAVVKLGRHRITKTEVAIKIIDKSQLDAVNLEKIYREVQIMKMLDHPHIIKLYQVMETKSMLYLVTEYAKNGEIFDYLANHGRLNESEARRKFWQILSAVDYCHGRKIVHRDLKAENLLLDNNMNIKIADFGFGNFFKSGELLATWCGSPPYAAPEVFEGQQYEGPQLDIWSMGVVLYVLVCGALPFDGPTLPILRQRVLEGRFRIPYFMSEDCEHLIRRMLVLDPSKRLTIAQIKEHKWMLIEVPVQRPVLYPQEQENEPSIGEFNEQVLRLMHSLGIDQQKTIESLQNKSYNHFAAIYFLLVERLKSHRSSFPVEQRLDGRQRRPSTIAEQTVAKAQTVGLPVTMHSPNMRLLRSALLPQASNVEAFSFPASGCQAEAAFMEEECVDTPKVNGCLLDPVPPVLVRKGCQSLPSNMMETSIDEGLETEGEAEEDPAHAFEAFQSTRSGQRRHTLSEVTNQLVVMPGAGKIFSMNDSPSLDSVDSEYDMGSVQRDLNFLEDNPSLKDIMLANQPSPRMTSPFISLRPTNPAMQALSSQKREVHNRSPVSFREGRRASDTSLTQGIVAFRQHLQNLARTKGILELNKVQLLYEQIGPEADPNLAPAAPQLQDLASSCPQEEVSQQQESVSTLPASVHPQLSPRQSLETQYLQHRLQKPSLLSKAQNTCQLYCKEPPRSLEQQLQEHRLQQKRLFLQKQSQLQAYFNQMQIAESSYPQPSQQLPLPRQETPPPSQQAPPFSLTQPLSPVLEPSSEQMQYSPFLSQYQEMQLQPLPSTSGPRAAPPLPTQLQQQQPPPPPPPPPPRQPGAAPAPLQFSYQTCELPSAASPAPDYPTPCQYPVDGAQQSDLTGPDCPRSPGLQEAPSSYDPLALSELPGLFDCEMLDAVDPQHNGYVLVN
Sequence of Tyrosine-protein kinase JAK1 (Homo sapiens) (P23458 whole entry): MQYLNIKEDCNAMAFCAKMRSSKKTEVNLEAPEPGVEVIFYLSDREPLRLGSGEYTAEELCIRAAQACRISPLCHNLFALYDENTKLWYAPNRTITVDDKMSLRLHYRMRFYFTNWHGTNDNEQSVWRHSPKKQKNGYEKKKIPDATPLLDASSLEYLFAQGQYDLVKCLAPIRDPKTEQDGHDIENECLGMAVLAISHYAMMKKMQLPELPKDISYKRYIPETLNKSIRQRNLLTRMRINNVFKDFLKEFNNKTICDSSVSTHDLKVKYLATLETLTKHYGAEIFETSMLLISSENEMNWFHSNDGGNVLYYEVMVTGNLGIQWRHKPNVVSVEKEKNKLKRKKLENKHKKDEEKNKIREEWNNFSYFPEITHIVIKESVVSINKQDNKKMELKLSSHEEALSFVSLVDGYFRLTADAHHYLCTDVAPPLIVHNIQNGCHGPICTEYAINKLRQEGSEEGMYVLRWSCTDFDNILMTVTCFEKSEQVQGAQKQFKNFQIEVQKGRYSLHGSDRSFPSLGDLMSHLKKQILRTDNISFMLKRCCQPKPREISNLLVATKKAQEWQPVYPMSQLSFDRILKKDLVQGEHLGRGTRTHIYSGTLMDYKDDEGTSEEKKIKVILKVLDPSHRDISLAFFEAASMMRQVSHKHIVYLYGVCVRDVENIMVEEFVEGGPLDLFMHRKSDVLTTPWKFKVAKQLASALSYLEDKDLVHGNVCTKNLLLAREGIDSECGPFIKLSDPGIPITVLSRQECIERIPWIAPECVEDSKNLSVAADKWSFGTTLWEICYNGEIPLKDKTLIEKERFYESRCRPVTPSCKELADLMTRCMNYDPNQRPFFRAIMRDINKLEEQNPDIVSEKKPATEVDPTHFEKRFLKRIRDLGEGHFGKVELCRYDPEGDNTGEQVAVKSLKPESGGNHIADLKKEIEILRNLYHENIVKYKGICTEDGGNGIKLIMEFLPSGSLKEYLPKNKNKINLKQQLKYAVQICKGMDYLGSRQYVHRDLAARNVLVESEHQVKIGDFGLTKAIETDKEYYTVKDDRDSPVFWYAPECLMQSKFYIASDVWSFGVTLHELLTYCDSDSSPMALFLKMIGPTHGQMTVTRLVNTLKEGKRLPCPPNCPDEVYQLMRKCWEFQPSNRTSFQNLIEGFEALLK
Sequence of CREB-binding protein (Q92793 whole entry, the tested form may be a part): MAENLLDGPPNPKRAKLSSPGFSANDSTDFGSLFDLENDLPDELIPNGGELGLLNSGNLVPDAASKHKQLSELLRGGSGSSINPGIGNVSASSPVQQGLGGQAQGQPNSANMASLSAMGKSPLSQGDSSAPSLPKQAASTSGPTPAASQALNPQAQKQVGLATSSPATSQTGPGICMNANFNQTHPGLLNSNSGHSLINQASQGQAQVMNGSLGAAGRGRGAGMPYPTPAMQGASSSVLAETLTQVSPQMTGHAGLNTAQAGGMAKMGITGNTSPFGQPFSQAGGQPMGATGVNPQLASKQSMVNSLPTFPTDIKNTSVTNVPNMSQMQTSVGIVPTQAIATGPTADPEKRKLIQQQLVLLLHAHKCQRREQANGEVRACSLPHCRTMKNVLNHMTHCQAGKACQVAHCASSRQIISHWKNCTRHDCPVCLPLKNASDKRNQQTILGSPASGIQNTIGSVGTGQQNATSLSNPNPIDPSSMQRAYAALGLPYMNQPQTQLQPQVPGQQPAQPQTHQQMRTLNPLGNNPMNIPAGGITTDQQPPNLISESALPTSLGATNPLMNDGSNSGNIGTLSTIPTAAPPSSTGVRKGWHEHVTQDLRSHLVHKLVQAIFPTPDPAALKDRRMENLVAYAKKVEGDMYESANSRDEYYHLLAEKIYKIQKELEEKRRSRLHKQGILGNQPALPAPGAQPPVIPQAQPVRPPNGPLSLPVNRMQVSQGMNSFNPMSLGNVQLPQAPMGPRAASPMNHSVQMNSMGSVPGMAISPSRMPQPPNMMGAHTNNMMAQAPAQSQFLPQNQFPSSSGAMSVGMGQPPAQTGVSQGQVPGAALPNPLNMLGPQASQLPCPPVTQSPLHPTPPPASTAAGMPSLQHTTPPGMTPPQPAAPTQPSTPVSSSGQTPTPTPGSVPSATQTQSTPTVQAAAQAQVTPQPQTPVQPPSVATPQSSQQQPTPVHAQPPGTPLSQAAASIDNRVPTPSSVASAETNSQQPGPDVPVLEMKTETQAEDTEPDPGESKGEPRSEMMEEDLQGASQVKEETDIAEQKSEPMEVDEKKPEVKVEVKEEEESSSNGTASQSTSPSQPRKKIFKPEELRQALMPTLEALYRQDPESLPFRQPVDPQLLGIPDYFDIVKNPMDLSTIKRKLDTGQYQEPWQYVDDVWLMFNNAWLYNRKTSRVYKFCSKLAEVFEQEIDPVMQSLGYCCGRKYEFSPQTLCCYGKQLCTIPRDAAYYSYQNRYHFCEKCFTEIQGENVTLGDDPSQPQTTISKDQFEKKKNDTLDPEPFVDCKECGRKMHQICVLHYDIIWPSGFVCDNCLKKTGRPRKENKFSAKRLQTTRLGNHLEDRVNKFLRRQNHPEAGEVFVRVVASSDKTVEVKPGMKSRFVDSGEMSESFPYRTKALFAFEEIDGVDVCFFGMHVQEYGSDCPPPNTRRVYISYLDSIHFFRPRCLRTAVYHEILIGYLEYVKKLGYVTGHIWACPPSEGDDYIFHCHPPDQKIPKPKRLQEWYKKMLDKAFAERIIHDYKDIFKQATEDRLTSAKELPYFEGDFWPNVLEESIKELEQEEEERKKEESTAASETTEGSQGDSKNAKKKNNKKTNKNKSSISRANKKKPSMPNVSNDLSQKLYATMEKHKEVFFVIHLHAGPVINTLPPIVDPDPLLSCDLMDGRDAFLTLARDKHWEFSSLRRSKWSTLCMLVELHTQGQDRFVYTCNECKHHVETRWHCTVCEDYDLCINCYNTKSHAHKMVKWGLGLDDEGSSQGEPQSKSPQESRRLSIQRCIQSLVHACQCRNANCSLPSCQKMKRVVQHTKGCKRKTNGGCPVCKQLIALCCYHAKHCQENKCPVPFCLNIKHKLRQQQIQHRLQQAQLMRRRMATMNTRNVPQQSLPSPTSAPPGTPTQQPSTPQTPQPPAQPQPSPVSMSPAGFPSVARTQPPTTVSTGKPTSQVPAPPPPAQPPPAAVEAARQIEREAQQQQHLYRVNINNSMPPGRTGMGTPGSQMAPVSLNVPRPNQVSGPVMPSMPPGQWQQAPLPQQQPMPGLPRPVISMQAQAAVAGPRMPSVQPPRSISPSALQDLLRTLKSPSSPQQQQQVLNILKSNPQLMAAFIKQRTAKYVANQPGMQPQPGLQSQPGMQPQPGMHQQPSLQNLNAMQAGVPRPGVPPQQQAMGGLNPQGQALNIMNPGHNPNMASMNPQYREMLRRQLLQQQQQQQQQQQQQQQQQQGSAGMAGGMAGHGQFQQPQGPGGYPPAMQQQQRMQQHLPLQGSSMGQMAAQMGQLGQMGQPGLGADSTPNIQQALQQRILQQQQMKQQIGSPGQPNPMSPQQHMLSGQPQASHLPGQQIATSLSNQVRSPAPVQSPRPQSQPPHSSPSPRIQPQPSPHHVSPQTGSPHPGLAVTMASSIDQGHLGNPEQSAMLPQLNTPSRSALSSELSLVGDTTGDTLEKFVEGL

C/C=C/Cn1cc(-c2ccc(C(C)(C)O)cc2OC)c2cc[nH]c2c1=O
IC50 (NCI-H2405): 20 µM
IC50 (NAMALVA): 20 µM
IC50 [1]: 20 µM
IC50 (NCI-H82): 20 µM
IC50 [2]: 20 µM
IC50 (YMB-1-E): 20 µM
IC50 (HT-29): 20 µM
IC50 (WiDr): 20 µM
IC50 [3]: 20 µM
IC50 (UACC-62): 20 µM
IC50 [4]: 20 µM
IC50 (MKN-45): 20 µM
IC50 (Calu-3): 20 µM
Kd [5]: 3.2 µM
Kd (CREB-binding protein): 3.5 µM
Kd [6]: > 10 µM
inhibition [7]: -2.5%
inhibition [8]: 0.5%
inhibition [9]: 18%

C/C=C/Cn1cc(-c2ccc(C(=O)N3CCOCC3)cc2)c2cc[nH]c2c1=O
IC50 (NCI-H2405): 20 µM
IC50 (NAMALVA): 20 µM
IC50 [1]: 14.8 µM
IC50 (NCI-H82): 20 µM
IC50 [2]: 17.7 µM
IC50 (YMB-1-E): 20 µM
IC50 (HT-29): 20 µM
IC50 (WiDr): 20 µM
IC50 [3]: 20 µM
IC50 (UACC-62): 20 µM
IC50 [4]: 20 µM
IC50 (MKN-45): 20 µM
IC50 (Calu-3): 20 µM
Kd [5]: 6.3 µM
Kd (CREB-binding protein): > 10 µM
Kd [6]: > 10 µM
inhibition [7]: -3.9%
inhibition [8]: 2.8%
inhibition [9]: 49%

C/C=C/Cn1cc(-c2cc(OC)c(C(C)(C)O)cc2OC)c2cc(C)[nH]c2c1=O
Kd [5]: 9.2 µM
Kd (CREB-binding protein): > 10 µM
Kd [6]: > 10 µM

C/C=C/Cn1cc(-c2cc(OC)c(C(=O)N3CCOCC3)cc2OC)c2cc(C)[nH]c2c1=O
IC50 (NCI-H2405): 2 µM
IC50 (NAMALVA): 2 µM
IC50 [1]: 2 µM
IC50 (NCI-H82): 2 µM
IC50 [2]: 2 µM
IC50 (YMB-1-E): 2 µM
IC50 (HT-29): 2 µM
IC50 (WiDr): 2 µM
IC50 [3]: 2 µM
IC50 (UACC-62): 2 µM
IC50 [4]: 2 µM
IC50 (MKN-45): 2 µM
IC50 (Calu-3): 2 µM
Kd [5]: > 10 µM
Kd (CREB-binding protein): > 10 µM
Kd [6]: > 5 µM
inhibition [7]: -4.5%
inhibition [8]: 1.5%
inhibition [9]: 9%
